In test [1] the target is von Hippel-Lindau disease tumor suppressor/Histone deacetylase 2 (Homo sapiens, UniProt Q92769+P40337). As to the kind of experiment: Protac activity at VHL/LSD1/HDAC2/CoREST complex interaction in human HCT-116 cells assessed as induction of HDAC2 degradation by fluorescence based assay. The test is classed as cell-based.
Test [2] addresses von Hippel-Lindau disease tumor suppressor/Histone deacetylase 3 (Homo sapiens, UniProt O15379+P40337). As to the kind of experiment: Protac activity at VHL/LSD1/HDAC3/CoREST complex interaction in human HCT-116 cells assessed as induction of HDAC3 degradation by fluorescence based assay. Format: cell-based.
In test [3] the target is von Hippel-Lindau disease tumor suppressor/Histone deacetylase 1 (Homo sapiens, UniProt Q13547+P40337). As to the kind of experiment: Protac activity at VHL/LSD1/HDAC1/CoREST complex interaction in human HCT-116 cells assessed as HDAC1 degradation by fluorescence based assay. Format: cell-based.
Test [4] concerns Jurkat. As to the kind of experiment: Growth inhibition of human Jurkat cells. Format: functional.
Test [5] has as its target T1, Histone deacetylase 8 (Homo sapiens, UniProt Q9BY41).
T1 sequence (Q9BY41 whole entry): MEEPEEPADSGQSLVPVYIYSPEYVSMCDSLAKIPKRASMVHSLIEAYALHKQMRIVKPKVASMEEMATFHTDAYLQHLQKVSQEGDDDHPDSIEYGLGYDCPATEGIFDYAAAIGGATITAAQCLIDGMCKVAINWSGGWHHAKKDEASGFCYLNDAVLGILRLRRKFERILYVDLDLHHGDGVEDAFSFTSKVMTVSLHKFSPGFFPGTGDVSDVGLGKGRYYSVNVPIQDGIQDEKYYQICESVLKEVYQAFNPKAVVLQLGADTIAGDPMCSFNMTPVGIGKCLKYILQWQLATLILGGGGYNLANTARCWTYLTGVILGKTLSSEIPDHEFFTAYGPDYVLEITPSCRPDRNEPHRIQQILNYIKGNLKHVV
As to the kind of experiment: Inhibition of HDAC8 (unknown origin) using acetyl-Gly-Ala-(N-acetyl-Lys)-amino-4-methylcoumarin as substrate measured after 30 mins by fluorescence assay.

Test [6] deals with Protein cereblon/Histone deacetylase 8 (Homo sapiens, UniProt Q9BY41+Q96SW2). As to the kind of experiment: PROTAC activity at HDAC8/CRBN in human A549 cells assessed as degradation of HDAC8 by Western blot analysis. The test is classed as cell-based. A general note: A western blot detects proteins with antibodies after separation by electrophoresis.
Test [7] relates to A549. As to the kind of experiment: Growth inhibition of human A549 cells incubated for 72 hrs by MTT assay. Format: functional. A general note: Formazan colour is commonly taken as a measure of viable cells.
Test [8] deals with T2, Histone deacetylase 8 (Homo sapiens) (UniProt Q9BY41).
T2 sequence (whole entry): T1 sequence (Q9BY41 whole entry)
As to the kind of experiment: Induction of HDAC8 degradation in human A549 cells assessed as maximum degradation at 0.1 to 160 uM measured after 10 hrs by Western blot analysis relative to control. Format: cell-based. The note with it: dose 0.1-160 µM.

Test [9] concerns A549. As to the kind of experiment: Antiproliferative activity against human A549 cells assessed as inhibition of cell growth measured after 48 hrs by SRB assay. The test is classed as functional. (In general: In SRB staining, fixed cells bind dye roughly in proportion to their protein.)

Each structure is given as a SMILES string.

By DC50 is commonly meant the concentration giving 50% degradation. A word on the GI50: it is the concentration giving 50% growth inhibition. In general, IC50 refers to the concentration needed to halve the response being measured. High values mean a need for much substance, low ones inhibition by little substance. As a reminder, the Emax is the maximal effect, on the per cent scale that the assay sets.

Protein cereblon/Histone deacetylase 8, sequence (Q96SW2 whole entry, one chain of several): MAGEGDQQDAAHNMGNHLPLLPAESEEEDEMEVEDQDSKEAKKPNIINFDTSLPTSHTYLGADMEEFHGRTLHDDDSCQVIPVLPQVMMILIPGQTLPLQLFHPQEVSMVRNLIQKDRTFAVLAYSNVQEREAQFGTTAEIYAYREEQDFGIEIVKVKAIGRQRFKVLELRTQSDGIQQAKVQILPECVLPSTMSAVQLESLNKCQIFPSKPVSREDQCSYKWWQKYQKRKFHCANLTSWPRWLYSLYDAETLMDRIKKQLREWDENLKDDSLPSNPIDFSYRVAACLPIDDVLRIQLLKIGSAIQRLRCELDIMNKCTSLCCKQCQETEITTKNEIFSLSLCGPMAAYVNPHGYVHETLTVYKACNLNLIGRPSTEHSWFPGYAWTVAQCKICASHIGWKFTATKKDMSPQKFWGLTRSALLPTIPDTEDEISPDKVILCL
von Hippel-Lindau disease tumor suppressor/Histone deacetylase 1, sequence (Q13547 whole entry): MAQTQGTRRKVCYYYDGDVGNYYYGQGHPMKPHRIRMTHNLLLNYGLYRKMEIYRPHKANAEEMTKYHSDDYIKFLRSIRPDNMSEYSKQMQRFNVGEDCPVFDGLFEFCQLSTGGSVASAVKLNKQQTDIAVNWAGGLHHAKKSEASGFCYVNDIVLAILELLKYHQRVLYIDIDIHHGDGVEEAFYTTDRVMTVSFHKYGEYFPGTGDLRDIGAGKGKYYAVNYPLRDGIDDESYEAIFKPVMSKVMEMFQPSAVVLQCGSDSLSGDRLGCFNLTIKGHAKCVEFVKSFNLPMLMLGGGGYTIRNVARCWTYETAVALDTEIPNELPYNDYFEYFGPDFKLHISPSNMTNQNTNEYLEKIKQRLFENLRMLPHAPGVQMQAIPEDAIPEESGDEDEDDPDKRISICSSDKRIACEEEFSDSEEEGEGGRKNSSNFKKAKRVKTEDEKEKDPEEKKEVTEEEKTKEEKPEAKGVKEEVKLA
von Hippel-Lindau disease tumor suppressor/Histone deacetylase 1, sequence (P40337 whole entry): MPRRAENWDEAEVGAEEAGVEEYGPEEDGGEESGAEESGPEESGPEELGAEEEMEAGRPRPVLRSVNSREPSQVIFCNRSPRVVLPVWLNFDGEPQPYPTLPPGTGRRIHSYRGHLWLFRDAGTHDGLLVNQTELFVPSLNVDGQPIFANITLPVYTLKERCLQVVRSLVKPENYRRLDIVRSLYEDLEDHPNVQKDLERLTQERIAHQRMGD
von Hippel-Lindau disease tumor suppressor/Histone deacetylase 2, sequence (Q92769 whole entry): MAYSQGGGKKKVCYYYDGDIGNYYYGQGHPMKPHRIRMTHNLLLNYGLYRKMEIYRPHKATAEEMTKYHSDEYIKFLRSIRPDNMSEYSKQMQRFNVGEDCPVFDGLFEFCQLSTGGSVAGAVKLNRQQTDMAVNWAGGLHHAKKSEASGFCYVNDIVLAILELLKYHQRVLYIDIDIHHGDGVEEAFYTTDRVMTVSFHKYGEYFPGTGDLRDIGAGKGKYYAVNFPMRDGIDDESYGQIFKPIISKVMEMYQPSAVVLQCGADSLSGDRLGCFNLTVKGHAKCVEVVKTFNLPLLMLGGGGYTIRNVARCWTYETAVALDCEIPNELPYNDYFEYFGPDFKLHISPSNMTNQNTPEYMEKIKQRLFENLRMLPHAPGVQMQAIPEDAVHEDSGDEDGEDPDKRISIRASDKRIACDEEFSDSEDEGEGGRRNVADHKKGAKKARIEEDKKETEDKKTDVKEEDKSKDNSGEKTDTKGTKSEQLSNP
von Hippel-Lindau disease tumor suppressor/Histone deacetylase 2, sequence (P40337 whole entry): as the sequence (P40337 whole entry) above
von Hippel-Lindau disease tumor suppressor/Histone deacetylase 3, sequence (O15379 whole entry): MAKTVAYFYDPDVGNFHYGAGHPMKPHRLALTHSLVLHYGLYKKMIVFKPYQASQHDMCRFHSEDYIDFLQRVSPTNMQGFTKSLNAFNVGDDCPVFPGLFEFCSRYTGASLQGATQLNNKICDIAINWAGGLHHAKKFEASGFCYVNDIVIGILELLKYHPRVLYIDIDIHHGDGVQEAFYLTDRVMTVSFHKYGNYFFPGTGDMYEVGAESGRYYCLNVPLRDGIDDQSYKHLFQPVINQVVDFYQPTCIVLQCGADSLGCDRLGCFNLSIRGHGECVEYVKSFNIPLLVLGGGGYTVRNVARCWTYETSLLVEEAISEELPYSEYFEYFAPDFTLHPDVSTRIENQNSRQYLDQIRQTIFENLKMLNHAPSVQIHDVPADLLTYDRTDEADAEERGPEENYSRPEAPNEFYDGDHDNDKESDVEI
von Hippel-Lindau disease tumor suppressor/Histone deacetylase 3, sequence (P40337 whole entry): as the sequence (P40337 whole entry) above

Regarding `Cc1ncsc1-c1ccc(CNC(=O)[C@@H]2C[C@@H](O)CN2C(=O)[C@@H](NC(=O)CCCCCCCCCCC(=O)Nc2ccc(C(=O)Nc3ccccc3N)cc2)C(C)(C)C)cc1`, the DC50 in test [1], in test [2] and in [3] was 1000 nM each time.
`O=C(NO)c1cccc(-n2cc(CSc3ccccc3)nn2)c1` displayed a GI50 in test [4] of 7090 nM. Further, the IC50 in test [5] was 53 nM.
Regarding `O=C1CCC(N2C(=O)c3cccc(NCc4cn(CCOCCOc5ccc(Cn6ccc7ccc(C(=O)NO)cc76)cc5)nn4)c3C2=O)C(=O)N1` (stereo unspecified), the DC50 in [6] worked out at 580 nM. Besides, the GI50 in test [7] came to 9550 nM. The Emax in test [8] turned out to be 95%.
In test [4], `O=C1CCC(N2C(=O)c3cccc(NCCCCCCCCCCCNC(=O)c4cccc(SCc5cn(-c6cccc(C(=O)NO)c6)nn5)c4)c3C2=O)C(=O)N1` (stereo unspecified) registered a GI50 of 780 nM. The IC50 in test [5] amounted to 372 nM.
In the case of `COc1ccc(Cn2ccc3ccc(C(=O)NO)cc32)cc1`, the GI50 in test [9] is 15800 nM.

Values taken from ChEMBL document CHEMBL5543058, “The application of PROTAC in HDAC” (Eur J Med Chem, 2023).
